# Tests used:
# ING3 PHD finger = format: binding
# TAF3 PHD finger = format: binding
# ING3 PHD = format: binding; conditions: 1 h, 4°C; pH 7.5
# SPIN1 TUDOR = format: binding; conditions: 1 h, 4°C; pH 7.5
# PHF2 PHD = format: binding; conditions: 1 h, 4°C; pH 7.5
# PHF2 PHD finger = format: binding
# PHF23 PHD finger = format: binding
# KDM7A PHD finger = format: binding
# Set7/9 = format: biochemical; conditions: pH 8.5
# endogenous PHF2 = format: binding; conditions: 1 h, 4°C
# endogenous SPIN1 = format: binding; conditions: 1 h, 4°C
Substance,interaction with ING3 PHD finger (ING3 PHD finger),interaction with TAF3 PHD finger (TAF3 PHD finger),pull-down of GST-ING3 PHD (ING3 PHD),pull-down of GST-SPIN1 TUDOR (SPIN1 TUDOR),pull-down of GST-PHF2 PHD (PHF2 PHD),interaction with PHF2 PHD finger (PHF2 PHD finger),interaction with PHF23 PHD finger (PHF23 PHD finger),interaction with KDM7A PHD finger (KDM7A PHD finger),methylation by Set7/9 (Set7/9),enrichment of endogenous PHF2 (endogenous PHF2),enrichment of endogenous SPIN1 (endogenous SPIN1)
PRRK(me3)QQAPRRSA-Biotin (PRRKQQAPRRSA) [TSHZ1 K4me3],bound,bound,methylation-dependent interactions,interacted,,,,,,,
SRRK(me3)QGNPQHLS-Biotin [BCL11B K4me3],,interacted,,interacted,strongly interacted,interacted,selectively interacted,interacted,could not methylate,very weakly,enriched
VRTK(me3)ADSVPGTY-Biotin [PCLAF K4me3],,,,,,,,only recognized KDM7A,,,

# — PMC8166343 (Biochemical Journal, 2021)
